Laboratory results taken from patent publication US20210260145A1, “PHARMACEUTICAL COMPOSITION FOR ALLEVIATING EYE FATIGUE, CONTAINING, AS ACTIVE INGREDIENTS, LUTEOLIN-7-O-DIGLUCURONIDE AND APIGENIN-7-O-DIGLUCURONIDE ISOLATED FROM PERILLA FRUTESCENS (L.) BRITTON VAR. ACUTA (THUNB.) KUDO LEAF EXTRACT” (JEONNAM BIOINDUSTRY FOUNDATION, priority 2018, published 2021).

Test system: Ciliary muscle cells (rCSMCs) isolated from rat's eyes
Experiment: cGMP content in rat ciliary muscle cells, isolated compounds (ELISA)
Type: cell-based
Settings: compounds 0.01, 0.05, 0.1, 1 μg/mL, 15 minutes
Protocol: Ciliary muscle cells ([…]) isolated from rat's eyes were dispensed into 6 wells at 5×10^5 cells/well and stabilized for one day. After stabilization, 3-isobuytyl-1-methylxanthine (1 mM) was pre-treated for 10 minutes, and then luteolin-7-O-diglucuronide and apigenin-7-O-diglucuronide compounds isolated from the Perilla frutescens (L.) Britton var. acuta (Thunb.) Kudo leaf extract were reacted for 15 minutes at concentrations of 0.01, 0.05, 0.1, and 1 μg/mL. The cGMP contents of these compounds were measured using an ELISA kit.

## O=C(O)[C@H]1O[C@@H](O[C@H]2[C@H](Oc3cc(O)c4c(=O)cc(-c5ccc(O)cc5)oc4c3)O[C@H](C(=O)O)[C@@H](O)[C@@H]2O)[C@H](O)[C@@H](O)[C@@H]1O [apigenin-7-O-diglucuronide]
  cGMP content: increasing the cGMP content

## luteolin-7-O-diglucuronide
  cGMP content: increasing the cGMP content
